Laboratory results reported in EP3362444B1, “COMPOUNDS” (Exonate Limited, priority 2015, dated 2017).
Entries after “also recorded” stand apart in the source; their conditions may differ.

Key:
[1] = molecular target: T1, SRPK1 (Homo sapiens, UniProt Q96SB4); test: Differential scanning fluorimetry (DSF); format: binding; details: higher ΔTm indicates higher affinity
T1 construct: 0.1 µg of purified SRPK1 kinase
Experimental: Differential Scanning Fluorimetry was performed as described in Federov et al (2011). […]

[2] = molecular target: T1, SRPK1; test: In vitro kinase assay (Kinase-Glo), SRPK1 inhibition; format: biochemical; details: for IC50: SRPK1 inhibition assay, 1 µM ATP, SRSF1 RS peptide, 30°C 10 minutes
Experimental: Candidate compounds were tested for SRPK1 inhibition using a Kinase-Glo assay (Promega, Southampton, UK32). […] Candidate compounds were serially diluted from 10 µM to 0.5 nM and added to the reaction mixture, wells with omitted SRPK1 kinase and omitted compounds were also added as controls. All wells contained 1% DMSO (Fisher Scientific, Loughborough, UK). One micromolar ATP was added, wells minus ATP were used as background controls. The plate was then incubated at 30°C for 10 minutes. An equal volume of Kinase-Glo (25 µL; Promega) was added to each well and the plate read for luminescence using a Fluostar Optima (BMG Labtech) .

[3] = system: primary RPE cells and ARPE-19 cells; test: qRT-PCR and conventional PCR of VEGF-A alternative splicing; format: cell-based, human; details: Figures 8 and 9
Description: Primary human retinal epithelial cells were lysed in Trizol reagent and mRNA was extracted using the method of Chomczynski and Sacchi, or using an RNeasy RNA extraction kit (Qiagen, UK). mRNA was reverse transcribed using Thermoscript reverse transcriptase (Fisher Scientific, UK). The cDNA was amplified using primers designed to amplify the region spanning the proximal and distal splice sites in human VEGF-A165a and VEGF-A165b, to amplify both isoforms and differentiate between them due to the fact that the exon 8b-containing isoform is 66-bp shorter than the exon 8a-containing isoform. The primers used were; 5'-[…]-3' (SEQ ID NO:2) and 5'-[…]-3' (SEQ ID NO:3) with the following conditions; 96°C for 2 min followed by 45 cycles at 96°C-30s, 60°C-30s and 72 °C -30 s. The PCR mix consisted of DNA: 200 ng, MgCl2 0.25 mM, Primer each 1 nM, Taq polymerase 1 unit and dH2O up to 25 µl. Control plasmid concentration: VEGF165a 500 ng and VEGF165b 1 µg. PCR products were run on 3% agarose gels containing 0.5 µg/ml ethidium bromide.
RNA was isolated and reverse transcribed as described above. Quantitative PCR (qPCR) was performed with a LightCycler 480 (Roche) q-PCR machine. The qPCR mix included PCR-grade dH2O 3 µl, PCR Primer (1 µM) 2 µl. […]
VEGF-A alternative splicing was further measured in retinal pigmented epithelial cells by qRT-PCR and conventional PCR.

[4] = system: laser-induced CNV; test: Laser-induced choroidal neovascularisation (CNV) model, topical eye drops; format: in vivo, C57/B6 mice; details: for anti-angiogenic efficacy as an eye drop (CNV lesion size): twice daily eye drops, compared with reference compound, Figures 4-7
Experimental: 6-8 week-old female C57/B6 mice were anesthetized with an intraperitoneal injection of a mixture of 50 mg/kg ketamine and 0.5 mg/kg medetomidine. The pupils were immediately dilated by topical (eyedrop) application with a dilator such as 5% phenylephrine hydrochloride and 1% tropicamide. Four photocoagulation lesions were delivered with a green Merilas 532α laser (450 mW, 130 ms) between the "large" retinal vessels in clear space with no vessels in a peripapillary distribution at a distance of 1-2 disc-diameters in each eye. Only clean laser lesions with a subretinal bubble at the time of treatment were included in the study. Immediately following laser photocoagulation the animals were given topical eye drops of candidate compounds twice daily (10 µl, eyes held for 30 seconds to prevent animal wiping drop away).
After one week, mice were anesthetized with an intraperitoneal injection of a mixture of 50 mg/kg ketamine and 0.5 mg/kg medetomidine. The pupils were immediately dilated by topical (eyedrop) application with a dilator such as 5% phenylephrine hydrochloride and 1% tropicamide. Mice were administered an intraperitoneal injection of sodium fluorescein (10%). Phase contrast and green fluorescent fundus images were taken with an angiography microscope and camera with each lesion in focus. The mice were killed by a schedule 1 method and eyes were either unfixed for retinal dissection and protein extraction, or fixed and enucleated and choroids stained and examined.

[5] = system: retinal pigmented epithelial cells; test: Isoform specific VEGF ELISA in retinal pigmented epithelial cells; format: cell-based; details: relative to DMSO control; Figure 3
Experimental: 96-well clear microplate (high sensitivity thermo immulon or costar 9018) were coated with 100 µL of 10 µg/ml VEGFxxxb or 0.25 µg/ml anti-hVEGF165a per well. The plate was sealed with parafilm and incubated overnight on the shaker at room temp. Each well was aspirated and washed with Wash Buffer (200 µl PBS-Tween 0.05%), two times for a total of three washes. After the last wash, remaining Wash Buffer was removed by inverting the plate and blotting it against clean paper towels. Plates were blocked by adding 100 µl of Reagent Diluent (1%BSA/PBS) to each well and incubated at room temp on a shaker for 2 hours. The aspiration/wash step was repeated. 100 µL of standards or samples in 1% BSA/PBS were added to each well, covered with parafilm and incubated 2 hours at room temperature. The aspiration/wash was repeated and 100 µL of 100 ng/ml Detection Antibody (BAF293), diluted in Reagent Diluent, was added to each well which were covered with parafilm and incubated 2 hours at room temp. The aspiration/wash was repeated and 100 µL of the working dilution of Streptavidin-HRP (1:200 dilution) was added to each well. […] The optical density of each well was measured immediately, using a microplate reader set to 450 nm.
To determine whether these compounds could switch splicing of VEGF isoforms, VEGF was measured in retinal pigmented epithelial cells by isoform specific ELISA.

T1 sequence (Q96SB4 whole entry): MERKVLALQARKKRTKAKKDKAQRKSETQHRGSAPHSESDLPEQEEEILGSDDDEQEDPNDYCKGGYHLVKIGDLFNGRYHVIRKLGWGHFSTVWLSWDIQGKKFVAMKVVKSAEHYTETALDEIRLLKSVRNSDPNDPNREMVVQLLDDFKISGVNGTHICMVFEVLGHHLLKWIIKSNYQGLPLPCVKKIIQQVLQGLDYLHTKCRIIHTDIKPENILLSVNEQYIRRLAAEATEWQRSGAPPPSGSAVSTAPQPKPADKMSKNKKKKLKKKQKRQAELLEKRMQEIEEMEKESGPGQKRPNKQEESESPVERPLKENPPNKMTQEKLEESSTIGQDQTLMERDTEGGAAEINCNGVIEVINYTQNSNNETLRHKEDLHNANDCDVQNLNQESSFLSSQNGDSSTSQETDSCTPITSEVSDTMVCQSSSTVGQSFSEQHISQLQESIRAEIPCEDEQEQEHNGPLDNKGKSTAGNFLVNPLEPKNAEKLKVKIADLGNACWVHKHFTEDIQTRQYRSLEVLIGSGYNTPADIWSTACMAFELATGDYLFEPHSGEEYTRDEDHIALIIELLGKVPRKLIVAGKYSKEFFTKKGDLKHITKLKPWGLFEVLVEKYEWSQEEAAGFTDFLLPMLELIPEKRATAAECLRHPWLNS

DSF (ΔTm/°C) [1] | IC50 [2] | Compound | other results
11.64 °C | 62.4 nM | O=C(Nc1cc(C(F)(F)F)ccc1N1CCN(Cc2cc[nH]n2)CC1)c1ccco1 [Compound 9, N-(2-(4-((1H-pyrazol-3-yl)methyl)piperazin-1-yl)-5-(trifluoromethyl)-phenyl)furan-2-carboxamide] | 
8.84 °C | 337 nM | Cc1ccc(C(=O)Nc2cc(C(F)(F)F)ccc2N2CCN(Cc3cn(Cc4ccccc4)nn3)CC2)o1 [Compound 7, N-(2-(4-((1-benzyl-1H-1,2,3-triazol-4-yl)methyl)piperazin-1-yl)-5-(trifluoromethyl)phenyl)-5-methylfuran-2-carboxamide] | 
12.94 °C |  | O=C(Nc1cc(C(F)(F)F)ccc1N1CCN(Cc2cscn2)CC1)c1ccco1 [Compound 11, N-(2-(4-(thiazol-4-ylmethyl)piperazin-1-yl)-5-(trifluoromethyl)-phenyl)furan-2-carboxamide] | 
14.44 °C |  | O=C(Nc1cc(C(F)(F)F)ccc1N1CCN(Cc2ccco2)CC1)c1ccccn1 [Compound 28, N-(2-(4-(furan-2-ylmethyl)piperazin-1-yl)-5-(trifluoromethyl)phenyl)-picolinamide] | 

Further lines, the molecule ahead of its results:

Compound | DSF (ΔTm/°C) [1] | IC50 [2] | other results
O=C(Nc1cc(Cl)ccc1N1CCN(Cc2ccco2)CC1)c1ccccn1 [Compound 29, N-(5-chloro-2-(4-(furan-2-ylmethyl)piperazin-1-yl)phenyl)picolinamide] | 11.97 °C |  | 
O=C(Nc1cc(C(F)(F)F)ccc1N1CCN(Cc2cc[nH]n2)CC1)c1ccc(C2CCOCC2)o1 [Compound 14, N-(2-(4-((1H-pyrazol-3-yl)methyl)piperazin-1-yl)-5-(trifluoromethyl)-phenyl)-5-(tetrahydro-2H-pyran-4-yl)furan-2-carboxamide] | 17.36 °C | 3.5 nM | levels of VEGF165b relative to VEGF165 RNA [3]: decrease VEGF-A165a/VEGF165b mRNA isoform expression; also recorded: decrease in VEGF165
O=C(Nc1cc(C(F)(F)F)ccc1N1CCN(Cc2cocn2)CC1)c1ccc(-c2ccncc2)o1 [N-(2-(4-(oxazol-4-ylmethyl)piperazin-1-yl)-5-(trifluoromethy] [N-(2-(4-(oxazol-4-ylmethyl)piperazin-1-yl)-5-(trifluoromethyl)phenyl)-5-(pyridin-4-yl)furan-2-carboxamide] |  |  | factor more effective than the known pazopanib-based eye drop treatment for AMD ([4]; eye drop): 10; anti-angiogenic efficacy as an eye drop (CNV lesion size) [4]: same efficacy
Cc1ccc(C(=O)Nc2cc(C(F)(F)F)ccc2N2CCN(Cc3ccco3)CC2)o1 [Compound 8, 5-methyl-N-(2-(4-((furan-2-yl)methyl)piperazin-1-yl)-5-(trifluoromethyl)phenyl)furan-2-carboxamide] | 15.95 °C | 17.6 nM | potency against SRPK1 relative to analogous compounds in which R3 is a pyridyl ring ([2]; by kinase assay or differential scanning fluorimetry, Figures 1 and 2): improved potency
O=C(Nc1cc(C(F)(F)F)ccc1N1CCN(Cc2cncs2)CC1)c1ccco1 [Compound 13, N-(2-(4-(thiazol-5-ylmethyl)piperazin-1-yl)-5-(trifluoromethyl)-phenyl)furan-2-carboxamide] | 12.99 °C | 39.5 nM | 
Cn1ccc(CN2CCN(c3ccc(C(F)(F)F)cc3NC(=O)c3ccco3)CC2)n1 [Compound 10, N-(2-(4-((1-methyl-1H-pyrazol-3-yl)methyl)piperazin-1-yl)-5-(trifluoromethyl)phenyl)furan-2-carboxamide] | 10.87 °C |  | 
O=C(Nc1cc(C(F)(F)F)ccc1N1CCN(Cc2cocn2)CC1)c1ccc(-c2ccncc2)o1 [Compound 17, N-(2-(4-(oxazol-4-ylmethyl)piperazin-1-yl)-5-(trifluoromethyl)phenyl)-5-(pyridin-4-yl)furan-2-carboxamide] |  |  | VEGF165b and VEGF165 protein [5]: increase in VEGF165b, but not VEGF165 protein; anti-angiogenic efficacy as an eye drop (CNV lesion size) [4]: same anti-angiogenic activity on lesion size and the same efficacy as reference compounds
O=C(Nc1cc(C(F)(F)F)ccc1N1CCN(Cc2cscn2)CC1)c1ccc(C2CCOCC2)o1 [Compound 19, 5-(tetrahydro-2H-pyran-4-yl)-N-(2-(4-(thiazol-4-ylmethyl)piperazin-1-yl)-5-(trifluoromethyl)phenyl)furan-2-carboxamide] | 18.03 °C | 1.7 nM | 
